Laboratory results taken from patent US20250367173A1, “ECTONUCLEOTIDE PYROPHOSPHATASE-PHOSPHODIESTERASE-1 INHIBITORS AND PHARMACEUTICAL COMPOSITIONS COMPRISING THE SAME” (LigaChem Biosciences Inc., priority 2022, published 2025).

Key:
ENPP-1 [1] = molecular target: T1, ENPP-1 (Homo sapiens, UniProt P22413); assay: ENPP-1 enzyme assay with pNP-TMP substrate; type: biochemical; details: 12.5 ng ENPP-1, 720 μM substrate pNP-TMP, pH 9.0, 37° C., 60 minutes, absorbance 405 nm; average IC50
T1 construct: purchased Biovendor RD172124100
T1 sequence (P22413 1-925): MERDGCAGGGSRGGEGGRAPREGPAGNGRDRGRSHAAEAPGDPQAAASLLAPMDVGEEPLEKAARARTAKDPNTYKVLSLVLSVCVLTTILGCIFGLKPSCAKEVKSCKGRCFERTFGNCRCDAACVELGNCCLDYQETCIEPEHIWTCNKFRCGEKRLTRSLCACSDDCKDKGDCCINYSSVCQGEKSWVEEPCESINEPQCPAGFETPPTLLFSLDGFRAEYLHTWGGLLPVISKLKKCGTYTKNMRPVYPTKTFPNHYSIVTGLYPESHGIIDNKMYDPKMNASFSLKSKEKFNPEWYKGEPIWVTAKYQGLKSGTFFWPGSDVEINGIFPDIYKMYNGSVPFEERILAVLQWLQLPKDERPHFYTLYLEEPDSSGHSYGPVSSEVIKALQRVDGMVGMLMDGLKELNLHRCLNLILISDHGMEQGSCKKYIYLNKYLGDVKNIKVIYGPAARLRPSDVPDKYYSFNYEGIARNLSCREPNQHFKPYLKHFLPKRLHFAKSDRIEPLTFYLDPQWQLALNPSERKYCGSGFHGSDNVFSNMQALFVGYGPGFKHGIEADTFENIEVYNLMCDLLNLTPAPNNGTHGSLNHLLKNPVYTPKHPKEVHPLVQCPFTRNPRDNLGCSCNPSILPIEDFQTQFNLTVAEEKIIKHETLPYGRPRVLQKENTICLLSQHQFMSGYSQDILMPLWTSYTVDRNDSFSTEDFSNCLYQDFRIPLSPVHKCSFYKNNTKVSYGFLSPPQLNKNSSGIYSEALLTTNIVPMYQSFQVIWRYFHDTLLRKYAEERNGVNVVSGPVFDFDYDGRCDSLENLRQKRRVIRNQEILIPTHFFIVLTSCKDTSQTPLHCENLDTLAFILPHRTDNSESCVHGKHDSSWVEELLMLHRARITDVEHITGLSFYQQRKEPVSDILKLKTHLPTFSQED
Experimental: In order to measure the ENPP-1 inhibitory activity of the compounds according to the present disclosure, the following tests were performed.
ENPP-1 hydrolyzes a variety of substrates, including phosphodiester bonds of nucleotides and nucleotide sugars and pyrophosphate bonds of nucleotides and nucleotide sugars. p-Nitrophenyl 5′-thymidine monophosphate (p-Nph-5′-TMP) is an artificial substrate for 5′-adenosine monophosphate (AMP), which is hydrolyzed by the human recombinant ENPP-1 enzyme. In the above reaction, ENPP-1 enzymatic activity is monitored through the formation of yellow p-nitrophenolate, which absorbs at 405 nm.
First, the reaction mixture contains 100 mM Tris-HCl (pH 9.0), 150 mM NaCl, […], and 1% DMSO. Serially diluted ENPP-1 inhibitors (test compound concentrations ranging from 10 μM to 0.5 nM) are reacted with 12.5 ng of ENPP-1 (Biovendor, catalog number RD172124100) and 720 μM substrate pNP-TMP at 37° C. for 60 minutes. All assays include a DMSO control without ENPP-1 inhibitor that gives maximum absorbance.
(§1) After 60 minutes of this reaction, the […] is measured using an Epoch™ Microplate Spectrophotometer (BioTek Instruments Inc.). Inhibition (%) is calculated using the following formula: Sample OD405 nm/Max OD405 nm×100%. % residual ENPP-1 enzyme activity versus IC50 values for ENPP-1 inhibitor concentrations were determined by fitting inhibition curves using the 4-parameter method of GraphPad Prism® software [GraphPad version 9.3.1 for Windows, GraphPad Software, La Jolla California USA, www.graphpad.com].

ENPP-1 [2] = molecular target: T1, ENPP-1; assay: ENPP-1 enzyme assay with cGAMP substrate; type: biochemical; details: 200 pM ENPP-1, 10 μM substrate 2′3′-cGAMP, pH 7.4, 37° C., 30 minutes, Transcreener AMP2/GMP2 kit; average IC50
Experimental: 2′3′-cGAMP is a natural substrate specifically hydrolyzed by ENPP-1, and produces 5′-adenosine monophosphate (AMP) and 5′-guanosine monophosphate (GMP). AMP and GMP produced from the reaction are monitored for ENPP-1 enzyme activity through an AMP^2/GMP^2 ENPP-1 Assay kit (Bellbrook Labs, catalog number 3015).
First, the reaction mixture contains 25 mM Tris-HCl (pH 7.4), 5 mM MgCl2, 0.01% Brij-35, and 1% DMSO. Serially diluted ENPP-1 inhibitors (test compound concentrations ranging from 10 μM to 0.5 nM) are reacted with 200 pM ENPP-1 (Biovendor, catalog number RD172124100) and 10 μM substrate 2′3′-cGAMP at 37° C. for 30 minutes. All assays include a DMSO control without ENPP-1 inhibitor that provides maximal AMP and GMP production. After 30 minutes of this reaction, AMP and GMP production is detected as a measure of ENPP-1 enzymatic activity using the Transcreener® AMP^2/GMP^2 ENPP-1 Assay kit. The detection reagent is a reagent containing 16 nM AMP^2/GMP^2 Antibody-Tb, 25 mM Tris-HCl and 60.1 nM AMP/GMP HiLyte647 Tracer, which is added by 5 μl, mixed well, and incubated at 25° C. for 2 hours.
as §1, with “The” for “After 60 minutes of this reaction, the”, “a SPARK Cyto plate reader (Tecan).” for “an Epoch™ Microplate Spectrophotometer (BioTek Instruments Inc.).”, “(Max 615:665 ratio-615:665 ratio)/Max 615:665 ratio×100%.” for “Sample OD405 nm/Max OD405 nm×100%.”

Compound | IC50 (ENPP-1 [1]) | IC50 (ENPP-1 [2])
COc1ccc2c(c1)c1ncccc1n2Cc1ccc(P(=O)(O)O)cc1 [Compound 13, (4-((8-methoxy-5H-pyrido[3,2-b]indol-5-yl)methyl)phenyl)phosphonic acid] | < 1000 nM | < 1000 nM
COc1ccc2c(c1)c1ncccc1n2Cc1ccc(CP(=O)(O)O)cc1 [Compound 14, (4-((8-methoxy-5H-pyrido[3,2-b]indol-5-yl)methyl)benzyl)phosphonic acid] | < 1000 nM | < 1000 nM
COc1ccc2c(c1)c1ncccc1n2Cc1ccc(S(N)(=O)=O)cc1F [Compound 15, 3-fluoro-4-((8-methoxy-5H-pyrido[3,2-b]indol-5-yl)methyl)benzenesulfonamide] | < 1000 nM | < 1000 nM
COc1ccc2c(c1)c1ncccc1n2Cc1ccc(S(N)(=O)=O)cc1Cl [Compound 16, 3-chloro-4-((8-methoxy-5H-pyrido[3,2-b]indol-5-yl)methyl)benzenesulfonamide] | < 1000 nM | < 1000 nM
COc1ccc2c(c1)c1ncccc1n2Cc1ccc(S(C)(=N)=O)cc1F (stereo not shown) [Compound 17, (3-fluoro-4-((8-methoxy-5H-pyrido[3,2-b]indol-5-yl)methyl)phenyl)(imino)(methyl)-l6-sulfanone] | < 1000 nM | < 1000 nM
COc1ccc2c(c1)c1ncccc1n2Cc1ccc(S(C)(=N)=O)cc1C (stereo not shown) [Compound 18, imino (4-((8-methoxy-5H-pyrido[3,2-b]indol-5-yl)methyl)-3-methylphenyl)(methyl)-l6-sulfanone] | < 1000 nM | < 1000 nM
COc1ccc2c(c1)c1ncccc1n2Cc1ccc(S(C)(=N)=O)cc1OC (stereo not shown) [Compound 19, imino (3-methoxy-4-((8-methoxy-5H-pyrido[3,2-b]indol-5-yl)methyl)phenyl)(methyl)-l6-sulfanone] | < 1000 nM | < 1000 nM
COc1ccc2c(c1)c1ncccc1n2Cc1ccc(S(C)(=N)=O)c(F)c1 (stereo not shown) [Compound 20, (2-fluoro-4-((8-methoxy-5H-pyrido[3,2-b]indol-5-yl)methyl)phenyl)(imino)(methyl)-l6-sulfanone] | < 1000 nM | < 1000 nM
NS(=O)(=O)c1ccc(Cn2c3ccc(Cl)cc3c3ncccc32)cc1 [Compound 21, 4-((8-chloro-5H-pyrido[3,2-b]indol-5-yl)methyl)benzenesulfonamide] | < 1000 nM | < 1000 nM
NS(=O)(=O)c1ccc(Cn2c3ccc(OC(F)(F)F)cc3c3ncccc32)cc1 [Compound 22, 4-((8-(trifluoromethoxy)-5H-pyrido[3,2-b]indol-5-yl)methyl)benzenesulfonamide] | < 1000 nM | 1000 to 10000 nM
Cc1ccc2c(c1)c1ncccc1n2Cc1ccc(S(C)(=N)=O)cc1 (stereo not shown) [Compound 23, imino(methyl) (4-((8-methyl-5H-pyrido[3,2-b]indol-5-yl)methyl)phenyl)-l6-sulfanone] | < 1000 nM | < 1000 nM
CCOc1ccc2c(c1)c1ncccc1n2Cc1ccc(S(C)(=N)=O)cc1 (stereo not shown) [Compound 24, (4-((8-ethoxy-5H-pyrido[3,2-b]indol-5-yl)methyl)phenyl)(imino)(methyl)-l6-sulfanone] | 1000 to 10000 nM | < 1000 nM
COc1cc(F)c2c(c1)c1ncccc1n2Cc1ccc(S(N)(=O)=O)cc1 [Compound 25, 4-((6-fluoro-8-methoxy-5H-pyrido[3,2-b]indol-5-yl)methyl)benzenesulfonamide] | < 1000 nM | 1000 to 10000 nM
COc1cc(C)c2c(c1)c1ncccc1n2Cc1ccc(S(N)(=O)=O)cc1 [Compound 26, 4-((8-methoxy-6-methyl-5H-pyrido[3,2-b]indol-5-yl)methyl)benzenesulfonamide] | < 1000 nM | < 1000 nM
COc1cc(Cl)c2c(c1)c1ncccc1n2Cc1ccc(S(N)(=O)=O)cc1 [Compound 27, 4-((6-chloro-8-methoxy-5H-pyrido[3,2-b]indol-5-yl)methyl)benzenesulfonamide] | < 1000 nM | 1000 to 10000 nM
COc1cc2c3ncccc3n(Cc3ccc(S(N)(=O)=O)cc3)c2cc1OC [Compound 28, 4-((7,8-dimethoxy-5H-pyrido[3,2-b]indol-5-yl)methyl)benzenesulfonamide] | < 1000 nM | < 1000 nM
COc1cc2c3ncccc3n(Cc3ccc(S(N)(=O)=O)cc3)c2cc1F [Compound 29, 4-((7-fluoro-8-methoxy-5H-pyrido[3,2-b]indol-5-yl)methyl)benzenesulfonamide] | < 1000 nM | < 1000 nM
COc1cc2c3ncccc3n(Cc3ccc(S(C)(=N)=O)cc3F)c2cc1F (stereo not shown) [Compound 31, (3-fluoro-4-((7-fluoro-8-methoxy-5H-pyrido[3,2-b]indol-5-yl)methyl)phenyl)(imino)(methyl)-l6-sulfanone] | < 1000 nM | < 1000 nM
COc1cc2c(cc1F)c1ncccc1n2Cc1ccc(S(C)(=N)=O)cc1 (stereo not shown) [Compound 32, (4-((8-fluoro-7-methoxy-5H-pyrido[3,2-b]indol-5-yl)methyl)phenyl)(imino)(methyl)-l6-sulfanone] | < 1000 nM | < 1000 nM
COc1cnc2c(c1)c1c(n2Cc2ccc(S(N)(=O)=O)cc2)CNCC1 [Compound 34, 4-((3-methoxy-5,6,7,8-tetrahydro-9H-pyrrolo[2,3-b:5,4-c′]dipyridin-9-yl)methyl)benzene sulfonamide] | > 10000 nM | > 10000 nM
COc1ccc2c3c(n(Cc4ccc(S(N)(=O)=O)cc4)c2c1)CCNC3 [Compound 35, 4-((7-methoxy-1,2,3,4-tetrahydro-5H-pyrido[4,3-b]indol-5-yl)methyl)benzenesulfonamide] | < 1000 nM | 1000 to 10000 nM
COc1ccc2c(c1)c1c(n2Cc2ccc(S(N)(=O)=O)cc2)CCNC1 [Compound 36, 4-((8-methoxy-1,2,3,4-tetrahydro-5H-pyrido[4,3-b]indol-5-yl)methyl)benzenesulfonamide] | 1000 to 10000 nM | > 10000 nM
COc1ccc2c3c(n(Cc4ccc(S(N)(=O)=O)cc4)c2c1)CCCN3 [Compound 37, 4-((7-methoxy-1,2,3,4-tetrahydro-5H-pyrido[3,2-b]indol-5-yl)methyl)benzenesulfonamide] | < 1000 nM | > 10000 nM
